Measurements as given in patent US20230203096A1, “EPHA4 TARGETING COMPOUNDS AND METHODS OF USE THEREOF” (priority 2020, published 2023).
Square brackets hold non-standard residues; d marks the D form. Peptide text beside a SMILES is read from it. * marks the point of attachment. Cyclohexanoyl(1S,3S-3-NH2) = N[C@H]1CCC[C@H](C(=O)*)C1; Trp(5-OH) = N[C@@H](Cc1c[nH]c2ccc(O)cc12)C(=O)O; NH(4-morpholinophenyl) = c1cc(N2CCOCC2)ccc1N*; Bip = N[C@@H](Cc1ccc(-c2ccccc2)cc1)C(=O)O; hArg = N=C(N)NCCCC[C@H](N)C(=O)O

Legend:
EphA4 = EphA4 (Mus musculus, UniProt Q03137); assay: EphA4 phosphorylation in primary spinal cord motor neurons (IP/western blot); conditions: 1 μM or 10 μM, 30 min
EphA4, sequence (Q03137 20-986): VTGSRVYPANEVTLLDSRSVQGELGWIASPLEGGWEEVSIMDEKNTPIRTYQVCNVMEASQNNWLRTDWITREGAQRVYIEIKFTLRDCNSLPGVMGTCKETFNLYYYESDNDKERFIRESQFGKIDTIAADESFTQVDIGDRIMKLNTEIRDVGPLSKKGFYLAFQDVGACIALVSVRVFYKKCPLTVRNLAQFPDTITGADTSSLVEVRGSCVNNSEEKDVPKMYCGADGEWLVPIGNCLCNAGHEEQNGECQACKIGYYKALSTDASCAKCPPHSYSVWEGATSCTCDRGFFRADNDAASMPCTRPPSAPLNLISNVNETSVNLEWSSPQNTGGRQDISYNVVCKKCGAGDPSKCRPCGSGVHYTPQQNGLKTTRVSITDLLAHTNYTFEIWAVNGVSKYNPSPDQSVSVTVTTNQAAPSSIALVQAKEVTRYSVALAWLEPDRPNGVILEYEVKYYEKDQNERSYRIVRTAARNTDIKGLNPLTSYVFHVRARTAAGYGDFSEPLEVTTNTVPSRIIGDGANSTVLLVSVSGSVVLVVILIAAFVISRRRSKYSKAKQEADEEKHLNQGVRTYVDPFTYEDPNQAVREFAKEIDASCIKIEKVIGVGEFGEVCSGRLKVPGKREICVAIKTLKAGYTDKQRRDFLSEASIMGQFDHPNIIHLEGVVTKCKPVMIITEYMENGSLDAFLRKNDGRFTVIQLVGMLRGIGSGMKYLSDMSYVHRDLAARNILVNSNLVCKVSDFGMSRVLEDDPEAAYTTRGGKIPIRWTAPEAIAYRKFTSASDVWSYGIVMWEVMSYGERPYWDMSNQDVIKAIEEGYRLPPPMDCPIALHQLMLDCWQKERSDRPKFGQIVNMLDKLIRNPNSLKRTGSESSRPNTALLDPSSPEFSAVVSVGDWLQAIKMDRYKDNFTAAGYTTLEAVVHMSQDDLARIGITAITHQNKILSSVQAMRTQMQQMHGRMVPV

[1] = tested on: primary spinal cord motor neurons; assay: Growth cone collapse in primary spinal cord motor neurons; conditions: 1 μM and 10 μM 150D4, 2 DIV neurons
[2] = molecular target: T1, recombinant EphA4 ligand binding domain (Homo sapiens, UniProt P54764, C204A); assay: Isothermal titration calorimetry (ITC) against EphA4-LBD; conditions: ITC, EphA4-LBD
T1 construct: His tag (N); made in house; host or cells: E. coli Rosetta-Gami B(DE3), pET15b
T1 sequence (P54764 29-209 C204A): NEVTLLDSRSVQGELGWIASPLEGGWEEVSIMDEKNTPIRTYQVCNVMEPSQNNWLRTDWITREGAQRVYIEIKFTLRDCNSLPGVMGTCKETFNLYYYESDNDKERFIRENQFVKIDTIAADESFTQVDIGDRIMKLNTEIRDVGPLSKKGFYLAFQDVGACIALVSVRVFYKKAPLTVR
Procedure: Peptides were synthesized by using standard solid-phase synthesis protocol, using the BAL resin as anchoring for the C-terminal amines. Isothermal Titration Calorimetry (ITC) measurements were performed in a reverse fashion by titrating the protein into the ligand solution. Solution nuclear magnetic resonance (NMR) experiments were conducted on a 700 MHz Bruker Avance spectrometer equipped with a TCI cryoprobe. Each protein sample was dissolved into an NMR tube at a final concentration of 20 μM (1% DMSO-d6) in the presence of 20 μM of each compound.
The fragments were transformed into Rosetta-Gami B(DE3) competent cells and grown in LB medium at 37° C. with 100 μg/mL of ampicillin until reaching an OD600 of 0.6-0.7 followed by induction with 0.4 mM IPTG overnight at 20° C. Bacteria were then collected by centrifugation and lysed by sonication at 4° C. […] EphA4 LBD with ^13C^ε/^1H^ε-Met labeled was expressed like previously described but adding a suspension of 100 mg of ^13C^ε/^1H^ε-Methionine in 1 mL of DMSO per liter of LB medium, 10 minutes before induction. […] Transformation, expression, and purification of EphA3-LBD chimera was performed as described above for EphA4-LBD.
Isothermal titration calorimetry (ITC) measurements were performed using the Affinity ITC Autosampler from TA Instruments (New Castle, Del.). The titrations were performed in a reverse fashion by titrating the protein into the ligand solution. […] The syringe was filled with a 100 μM solution of EphA4-LBD, EphA3-LBD Chimera, or EphA2-LBD, and 20 injections of 2.5 μL each were performed into the cell containing a 20 μM solution of the compounds. The injections were made at 200 s or 400 s intervals with a stirring speed of 75 rpm. All the solutions were kept in the autosampler at 4° C. The analysis of the thermodynamics signatures and for dissociation constant determination was performed by the NanoAnalyze software (TA Instruments, New Castle, Del.) and subsequently exported into Microsoft Excel.

SMILES: N=C(N)NCCCC[C@H](NC(=O)[C@H](Cc1ccc(-c2ccccc2)cc1)NC(=O)[C@H](Cc1c[nH]c2ccc(O)cc12)NC(=O)[C@H]1CCC[C@H](N)C1)C(=O)NCC(=O)Nc1ccc(N2CCOCC2)cc1 [Compound 8, (1S,3S)—N—((S)-1-(((S)-3-([1,1′-biphenyl]-4-yl)-1-(((S)-6-guanidino-1-((2-((4-morpholinophenyl)amino)-2-oxoethyl)amino)-1-oxohexan-2-yl)amino)-1-oxopropan-2-yl)amino)-3-(5-hydroxy-1H-indol-3-yl)-1-oxopropan-2-yl)-3-aminocyclohexane-1-carboxamide] ({Cyclohexanoyl(1S,3S-3-NH2)}-[Trp(5-OH)][Bip][hArg]G-{NH(4-morpholinophenyl)})
- EphA4 receptor phosphorylation (pEphA4/total EphA4) (EphA4): more significantly active than others
- growth cone collapse [1]: effective in inducing growth cone collapse
- -TΔS [2]: -0.88 kcal/mol
- AH [2]: -8.49 kcal/mol
- Kd ([2]; read-out: Kd (nM)- ITC): 113 nM
